Legend:
[1] = system: neutrophils (neutrophil-lin); assay: MLTA, Neut: concentration-response and QSP model fit; type: cell-based, human; settings: Homo sapiens, Neutrophil, 144 h
Method in brief: (§1)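 Values derive from fitting a QSP Emax model (EmaxT 0–2, above 1 denoting added cell killing) to vehicle-normalized lineage counts. Counts were obtained by 17-parameter flow after 6-day culture of human bone marrow CD34+ cells with test article.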

[2] = system: granulocyte progenitor (Gran-lin prog); assay: MLTA, GranP: concentration-response and QSP model fit; type: cell-based, human; settings: Homo sapiens, 144 h
Method in brief: (§2)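 Parameters come from fitting an Emax-based QSP model, with L1 regularization and Emax ranging 0–2, to vehicle-normalized, bead-corrected flow cytometry counts. Counts came from human bone marrow CD34+ cells treated from day 0 through a 6-day multi-lineage cytokine culture in SFEM II, using 2–7 donors per drug.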

[3] = system: early erythroid cells (Eryth I); assay: MLTA, ErythI: concentration-response and QSP model fit; type: cell-based, human
Method in brief: as §2

MK cells (MK-lin) = assay: MLTA, MK: concentration-response and QSP model fit; type: cell-based, human; settings: Homo sapiens, 144 h
Method in brief: as §1

[4] = system: late erythroid cells (Eryth II); assay: MLTA, ErythII: concentration-response and QSP model fit; type: cell-based, human; settings: Homo sapiens, 144 h
Method in brief: as §1

[5] = system: human bone marrow-derived CD34+ cells differentiated into multiple hematopoietic lineages; assay: MLTA, overall effects across hematopoietic lineages; type: cell-based; settings: QSP model fit; EmaxT > 1.0 = cell-killing
Protocol: A custom optimized cytokine cocktail was developed using commercially available cytokines (Peprotech, New Jersey) to facilitate simultaneous multi-lineage differentiation and self-renewal of freeze-thawed primary human bone marrow-derived CD34+ cells in SFEM II media (cells and media from StemCell Technologies, Vancouver). Cultures were carried out in ultra-low attachment 96-well plates (Corning, New York) with test article added on day 0 and cultured at 37°C, 85% relative humidity, and 5% CO2 for six days before interrogating drug impact via 17-parameter flow cytometry.
The flow cytometry panel used to define hematopoietic subsets was composed of CD34-PECy7, CD90-PECY5, CD38-AF488, CD371-PE, CD45Ra-BV421, CD14-BV605, CD42b-AF647, CD10-PEDazzle594, CD235a-PerCPCy5.5 (BioLegend, California), CD15-BUV395, CD41a-APCH7, CD71-BV786 (BD Biosciences, California), and DAPI for dead cell exclusion (ThermoFisher, California). In short, Day 6 cells were harvested, FcR-blocked (FcR binding inhibitor, ThermoFisher), surface-stained, then analyzed in a buffer containing TruCount Control Beads using a BD LSR Fortessa SORP fitted with a high-throughput sampler (BD Biosciences, California). Data was analyzed in Diva 6.0.2 and exported to CSV where after all cell data was transformed to cell per mL then normalized on a per-donor basis to untreated control wells to determine drug impact.
Donor material was collected and cultured as described above. The number of replicate donor samples per drug ranged from 2–7 and varied per drug (S1 Table). Drug treatment was added at time 0 and cells were maintained in culture for 6 days. Concentrations tested for each drug compound are contained in S1 Table. Concentrations were selected to span a range that is clinically useful. Following treatment, cell populations were measured using flow cytometry. We extracted cell counts from flow cytometry data, normalized to bead counts, and corrected for well volume.
Each well was normalized to the average of six vehicle control wells. For drugs that were tested across multiple runs of the assay, vehicle-normalized donor data were pooled, and we used the average of these pooled data for further modeling. Normalized data used as model inputs are included in S1 Table.
We implemented drug effects using an Emax model for the drug’s effect on each cell type. The 13 maximum effect parameters (EmaxT,C) are unitless and can vary between 0 and 2 and where a subscript, C, represents one of the previously described 13 cell types. We adapted a traditional Emax model using the equations below. We interpreted EmaxT values less than or equal to one as anti-proliferative, and EmaxT values greater than one as indicating a cell-killing mechanism in addition to anti-proliferation. The relationships for these effects are included in the model using the following equations. Eq 2 describes the drug anti-proliferative effect in the net proliferation rate for a given cell type. Eq 3 describes the cell-killing EmaxCK effect.

[6] = system: multi-potent progenitors (MPPs); assay: MLTA, MPPs: concentration-response and QSP model fit; type: cell-based, human
Method in brief: as §1

[7] = system: hematopoietic stem cells (HSCs); assay: Multi-lineage toxicity assay (MLTA), HSCs: concentration-response and QSP model fit; type: cell-based, human
Method in brief: as §1

[8] = QSP model fit of 6-day MLTA data
[9] = cell-killing component, max(0, EmaxT-1)

## CC(=O)O[C@@]12CO[C@@H]1C[C@H](O)[C@@]1(C)C(=O)[C@H](O)C3=C(C)[C@@H](OC(=O)[C@H](O)[C@@H](NC(=O)OC(C)(C)C)c4ccccc4)C[C@@](O)([C@@H](OC(=O)c4ccccc4)[C@H]21)C3(C)C [docetaxel]
[1]; [8]
  EC50: 13.7 nM
[1]; dose 0.2 nM, 6 days, normalized to vehicle control, read-out: Neut normalized cell count
  activity at 0.0002 µM: 90.8%
[1]; dose 1 nM, 6 days, normalized to vehicle control, read-out: Neut normalized cell count
  activity at 0.001 µM: 99.6%
[1]; dose 5 nM, 6 days, normalized to vehicle control, read-out: Neut normalized cell count
  activity at 0.005 µM: 0.23%
[1]; dose 25 nM, 6 days, normalized to vehicle control, read-out: Neut normalized cell count
  activity at 0.025 µM: 0.177%
[1]; dose 100 nM, 6 days, normalized to vehicle control, read-out: Neut normalized cell count
  activity at 0.1 µM: 0.139%
[1]; dose 500 nM, 6 days, normalized to vehicle control, read-out: Neut normalized cell count
  activity at 0.5 µM: 0.0727%
[1]; dose 2500 nM, 6 days, normalized to vehicle control, read-out: Neut normalized cell count
  activity at 2.5 µM: 0%
[1]; parameter from QSP model fitting, read-out: Emax_drug_Neut
  Emax: 23.2%
[2]; dose 0.2 nM, 6 days, normalized to vehicle control, read-out: GranPs normalized cell count
  activity at 0.0002 µM: 110%
[2]; dose 1 nM, 6 days, normalized to vehicle control, read-out: GranPs normalized cell count
  activity at 0.001 µM: 110%
[2]; dose 5 nM, 6 days, normalized to vehicle control, read-out: GranPs normalized cell count
  activity at 0.005 µM: 4.64%
[2]; dose 25 nM, 6 days, normalized to vehicle control, read-out: GranPs normalized cell count
  activity at 0.025 µM: 0%
[2]; dose 100 nM, 6 days, normalized to vehicle control, read-out: GranPs normalized cell count
  activity at 0.1 µM: 0.0204%
[2]; dose 500 nM, 6 days, normalized to vehicle control, read-out: GranPs normalized cell count
  activity at 0.5 µM: 0.0147%
[2]; dose 2500 nM, 6 days, normalized to vehicle control, read-out: GranPs normalized cell count
  activity at 2.5 µM: 0.0152%
[2]; parameter from QSP model fitting, read-out: Emax_drug_GranP
  Emax: 0.04%
[3]; Homo sapiens, 144 h, QSP model fit of 6-day MLTA data, read-out: EC50ErythI
  EC50: 8.14 nM
[3]; Homo sapiens, 144 h, dose 0.2 nM, 6 days, normalized to vehicle control, read-out: ErythI normalized cell count
  activity at 0.0002 µM: 112%
[3]; Homo sapiens, 144 h, dose 1 nM, 6 days, normalized to vehicle control, read-out: ErythI normalized cell count
  activity at 0.001 µM: 110%
[3]; Homo sapiens, 144 h, dose 5 nM, 6 days, normalized to vehicle control, read-out: ErythI normalized cell count
  activity at 0.005 µM: 5.32%
[3]; Homo sapiens, 144 h, dose 25 nM, 6 days, normalized to vehicle control, read-out: ErythI normalized cell count
  activity at 0.025 µM: 0.559%
[3]; Homo sapiens, 144 h, dose 100 nM, 6 days, normalized to vehicle control, read-out: ErythI normalized cell count
  activity at 0.1 µM: 0.401%
[3]; Homo sapiens, 144 h, dose 500 nM, 6 days, normalized to vehicle control, read-out: ErythI normalized cell count
  activity at 0.5 µM: 0.687%
[3]; Homo sapiens, 144 h, dose 2500 nM, 6 days, normalized to vehicle control, read-out: ErythI normalized cell count
  activity at 2.5 µM: 0.409%
[3]; Homo sapiens, 144 h, parameter from QSP model fitting, read-out: Emax_drug_ErythroidI
  Emax: 173%
[3]; [9]
  EmaxCK,ErythI: 0.726 day⁻¹
MK cells (MK-lin); [8]
  EC50: 7.79 nM
MK cells (MK-lin); dose 0.2 nM, 6 days, normalized to vehicle control, read-out: MK normalized cell count
  activity at 0.0002 µM: 94.7%
MK cells (MK-lin); dose 1 nM, 6 days, normalized to vehicle control, read-out: MK normalized cell count
  activity at 0.001 µM: 109%
MK cells (MK-lin); dose 5 nM, 6 days, normalized to vehicle control, read-out: MK normalized cell count
  activity at 0.005 µM: 14.4%
MK cells (MK-lin); dose 25 nM, 6 days, normalized to vehicle control, read-out: MK normalized cell count
  activity at 0.025 µM: 1.1%
MK cells (MK-lin); dose 100 nM, 6 days, normalized to vehicle control, read-out: MK normalized cell count
  activity at 0.1 µM: 0.719%
MK cells (MK-lin); dose 500 nM, 6 days, normalized to vehicle control, read-out: MK normalized cell count
  activity at 0.5 µM: 0.951%
MK cells (MK-lin); dose 2500 nM, 6 days, normalized to vehicle control, read-out: MK normalized cell count
  activity at 2.5 µM: 1.05%
MK cells (MK-lin); parameter from QSP model fitting, read-out: Emax_drug_MK
  Emax: 12.6%
[4]; QSP model fit of 6-day MLTA data, read-out: EC50ErythII
  EC50: 6.3 nM
[4]; dose 0.2 nM, 6 days, normalized to vehicle control, read-out: ErythII normalized cell count
  activity at 0.0002 µM: 91.6%
[4]; dose 1 nM, 6 days, normalized to vehicle control, read-out: ErythII normalized cell count
  activity at 0.001 µM: 105%
[4]; dose 5 nM, 6 days, normalized to vehicle control, read-out: ErythII normalized cell count
  activity at 0.005 µM: 0.449%
[4]; dose 25 nM, 6 days, normalized to vehicle control, read-out: ErythII normalized cell count
  activity at 0.025 µM: 0.0341%
[4]; dose 100 nM, 6 days, normalized to vehicle control, read-out: ErythII normalized cell count
  activity at 0.1 µM: 0.0344%
[4]; dose 500 nM, 6 days, normalized to vehicle control, read-out: ErythII normalized cell count
  activity at 0.5 µM: 0.0336%
[4]; dose 2500 nM, 6 days, normalized to vehicle control, read-out: ErythII normalized cell count
  activity at 2.5 µM: 0.0256%
[4]; parameter from QSP model fitting, read-out: Emax_drug_ErythroidII
  Emax: 1.59%
[5]
  EmaxT effects across cell types (overall statement): > 1.0
[6]; Homo sapiens, 144 h, QSP model fit of 6-day MLTA data
  EC50: 4.71 nM
[6]; Homo sapiens, 144 h, dose 0.2 nM, 6 days, normalized to vehicle control, read-out: MPPs normalized cell count
  activity at 0.0002 µM: 91%
[6]; Homo sapiens, 144 h, dose 1 nM, 6 days, normalized to vehicle control, read-out: MPPs normalized cell count
  activity at 0.001 µM: 107%
[6]; Homo sapiens, 144 h, dose 5 nM, 6 days, normalized to vehicle control, read-out: MPPs normalized cell count
  activity at 0.005 µM: 63.9%
[6]; Homo sapiens, 144 h, dose 25 nM, 6 days, normalized to vehicle control, read-out: MPPs normalized cell count
  activity at 0.025 µM: 2.42%
[6]; Homo sapiens, 144 h, dose 100 nM, 6 days, normalized to vehicle control, read-out: MPPs normalized cell count
  activity at 0.1 µM: 0.694%
[6]; Homo sapiens, 144 h, dose 500 nM, 6 days, normalized to vehicle control, read-out: MPPs normalized cell count
  activity at 0.5 µM: 2.03%
[6]; Homo sapiens, 144 h, dose 2500 nM, 6 days, normalized to vehicle control, read-out: MPPs normalized cell count
  activity at 2.5 µM: 0.798%
[6]; Homo sapiens, 144 h, parameter from QSP model fitting, read-out: Emax_drug_MPP
  Emax: 201%
[6]; [9]
  EmaxCK,MPP: 1.014 day⁻¹
[7]; Homo sapiens, Hematopoietic stem cell, 144 h, QSP model fit of 6-day MLTA data
  EC50: 33.7 nM
[7]; Homo sapiens, Hematopoietic stem cell, 144 h, dose 0.2 nM, 6 days, normalized to vehicle control, read-out: HSCs normalized cell count
  activity at 0.0002 µM: 97.9%
[7]; Homo sapiens, Hematopoietic stem cell, 144 h, dose 1 nM, 6 days, normalized to vehicle control, read-out: HSCs normalized cell count
  activity at 0.001 µM: 104%
[7]; Homo sapiens, Hematopoietic stem cell, 144 h, dose 5 nM, 6 days, normalized to vehicle control, read-out: HSCs normalized cell count
  activity at 0.005 µM: 64.6%
[7]; Homo sapiens, Hematopoietic stem cell, 144 h, dose 25 nM, 6 days, normalized to vehicle control, read-out: HSCs normalized cell count
  activity at 0.025 µM: 4%
[7]; Homo sapiens, Hematopoietic stem cell, 144 h, dose 100 nM, 6 days, normalized to vehicle control, read-out: HSCs normalized cell count
  activity at 0.1 µM: 0.534%
[7]; Homo sapiens, Hematopoietic stem cell, 144 h, dose 500 nM, 6 days, normalized to vehicle control, read-out: HSCs normalized cell count
  activity at 0.5 µM: 2.32%
[7]; Homo sapiens, Hematopoietic stem cell, 144 h, dose 2500 nM, 6 days, normalized to vehicle control, read-out: HSCs normalized cell count
  activity at 2.5 µM: 0.559%
[7]; Homo sapiens, Hematopoietic stem cell, 144 h, parameter from QSP model fitting, read-out: Emax_drug_HSC
  Emax: 130%
[7]; [9]
  EmaxCK,HSC: 0.3 day⁻¹
